This note sets out measurements from publication PMC3973943, “Microwave-assisted synthesis of some hybrid molecules containing penicillanic acid or cephalosporanic acid moieties and investigation of their biological activities” (Medicinal Chemistry Research, 2013).

In the experiment the target is Jack bean urease (Canavalia ensiformis, UniProt P07374). The experiment can be described thus: indophenol ammonia assay, […] nm. Type of experiment: biochemical.
Sequence of Jack bean urease (P07374 whole entry): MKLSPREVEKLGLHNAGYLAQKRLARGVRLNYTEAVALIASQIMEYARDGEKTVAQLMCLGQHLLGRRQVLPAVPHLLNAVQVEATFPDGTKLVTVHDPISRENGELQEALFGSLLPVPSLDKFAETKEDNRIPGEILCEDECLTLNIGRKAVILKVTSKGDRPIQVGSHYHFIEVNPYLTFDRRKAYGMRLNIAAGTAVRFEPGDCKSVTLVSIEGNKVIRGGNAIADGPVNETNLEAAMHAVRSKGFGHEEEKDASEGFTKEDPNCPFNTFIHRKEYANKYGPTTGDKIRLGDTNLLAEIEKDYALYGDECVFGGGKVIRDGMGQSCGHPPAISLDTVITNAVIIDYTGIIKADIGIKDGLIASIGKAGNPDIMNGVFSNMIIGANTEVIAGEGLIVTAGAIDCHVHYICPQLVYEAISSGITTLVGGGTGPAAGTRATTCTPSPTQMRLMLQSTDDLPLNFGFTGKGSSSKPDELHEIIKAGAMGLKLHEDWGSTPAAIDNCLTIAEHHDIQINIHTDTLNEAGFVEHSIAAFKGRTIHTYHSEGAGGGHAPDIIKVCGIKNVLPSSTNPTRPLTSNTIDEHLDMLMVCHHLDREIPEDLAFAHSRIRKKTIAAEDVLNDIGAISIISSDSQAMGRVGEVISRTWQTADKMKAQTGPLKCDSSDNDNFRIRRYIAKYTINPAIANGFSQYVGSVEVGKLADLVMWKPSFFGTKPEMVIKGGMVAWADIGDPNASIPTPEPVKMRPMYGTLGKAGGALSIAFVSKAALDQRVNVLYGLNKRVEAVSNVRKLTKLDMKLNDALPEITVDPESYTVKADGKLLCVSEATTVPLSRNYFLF
The compound `CCOC(=O)N1CCN(c2ccc(NCc3nn(CN[C@@H]4C(=O)N5[C@@H]4SC(C)(C)[C@@H]5C(=O)O)c(=S)n3-c3ccccc3)cc2F)CC1` [compound 17, [({(5R,6R)-6-[({3-[({4-[4-(Ethoxycarbonyl)piperazin-1-yl]-3-fluorophenyl}amino)methyl]-4-phenyl-5-thioxo-4,5-dihydro-1H-1,2,4-triazol-1-yl}methyl)amino]-3,3-dimethyl-7-oxo-4-thia-1-azabicyclo[3.2.0]hept-2-yl}carbonyl)oxy](triethyl)ammonium] gave an IC50 of 66.3 µM.

Consider `CCOC(=O)N1CCN(c2ccc(NCc3nn(CN[C@@H]4C(=O)N5C(C(=O)O)=C(COC(C)=O)CS[C@H]45)c(=S)n3-c3ccc(F)cc3)cc2F)CC1` [compound 15, ({[(6R,7R)-3-[(Acetyloxy)methyl]-7-({[3-[({4-[4-(ethoxycarbonyl)piperazin-1-yl]-3-fluorophenyl}amino)methyl]-4-(4-fluorophenyl)-5-thioxo-4,5-dihydro-1H-1,2,4-triazol-1-yl]methyl}amino)-8-oxo-5-thia-1-azabicyclo[4.2.0]oct-2-en-2-yl]carbonyl}oxy)triethyl ammonium], for which the concentration for half-maximal inhibition (IC50) is 6.15 µM.

In turn, `NC(N)=S` [Thiourea, reference compound] gave an IC50 of 717 µM.

For orientation: IC50 means the concentration that inhibits the measured activity by half.
